Data set [1] concerns Mtb H37Rv. Put plainly: TB MIC - SRI, resazurin-based microplate assay. As to conditions: Mycobacterium tuberculosis, H37RV. In kind it is cell-based, Mycobacterium tuberculosis.
Data set [2] relates to Mtb H37Rv. Put plainly: TB MIC - ITR (UIC), Institute for Tuberculosis Research. In kind it is cell-based, Mycobacterium tuberculosis. As to conditions: for MIC: Mycobacterium tuberculosis, H37RV, Tables 1-4, read-out: TB MIC - ITR.
Another data set concerns NRP Mtb H37Rv cells. In words: Low-oxygen recovery assay (LORA) MIC. The following applies: for MIC: Mycobacterium tuberculosis, H37RV, NRP Mtb, Tables 1-4 and text, read-out: LORA MIC - ITR. Type of data set: cell-based, Mycobacterium tuberculosis.
Where [3] appears, read: Tables 1-4 and text, read-out: TB MIC - SRI.
The mark [4] stands for this setting: Tables P1-P3, read-out: TB MIC - SRI.
Where [5] appears, read: Table P4, read-out: Activity against H37Rv.
Where [6] appears, read: read-out: TB MIC - SRI, Tables P1-P3.

Converted amounts (≈) assume the structure as drawn. Read-outs that look alike come from different tables or passages of the source. Some results are limits rather than exact numbers.

The values below come from patent US9663478B2, “Benzotriazine oxides as drugs targeting Mycobacterium tuberculosis” (priority 2011, dated 2017).

Take `CC(C)(C)C1CCC(Nc2n[n+]([O-])c3ccccc3[n+]2[O-])CC1` (stereo not shown) [Compound 8j, 3-((4-(tert-butyl)cyclohexyl)amino)benzo[e][1,2,4]triazine 1,4-dioxide]: the MIC with Mtb H37Rv [1] (setting [3]) is 0.62 µg/mL (≈ 1.96 µM); in the data set on Mtb H37Rv [2], 0.22 µg/mL (≈ 0.695 µM); with NRP Mtb H37Rv cells, less than 0.12 µg/mL. Regarding `Cc1cc2c(cc1C)[n+]([O-])c(NC1CCC1)n[n+]2[O-]` [SRI-012459], in the data set on Mtb H37Rv [1] (setting [4]), the MIC amounted to 0.625 µg/mL (≈ 2.4 µM). Moreover, the “VERO Tox-SRI” value with Vero cells (African green monkey, 72 h) is 21.8. As to `CCNc1n[n+]([O-])c2cc(F)ccc2[n+]1[O-]` [Compound 15aa, 3-(ethylamino)-7-fluorobenzo[e][1,2,4]triazine 1,4-dioxide], the MIC in the data set on Mtb H37Rv [1] (setting [3]) was found to be 0.62 µg/mL (≈ 2.77 µM); with Mtb H37Rv [2], 0.35 µg/mL (≈ 1.56 µM); in the data set on NRP Mtb H37Rv cells it was 0.75 µg/mL (≈ 3.35 µM). `CCNc1n[n+]([O-])c2cc(C)c(OC)cc2[n+]1[O-]` [SRI-012468]: the “VERO Tox-SRI” value in the data set on Vero cells (African green monkey, 72 h) came to 100. In the case of `CSc1c(C)[n+]([O-])c2ccccc2[n+]1[O-]` [Cmpd 3], the “Vero Tox CC50” value in the data set on Vero cells was more than 16 µg/mL. On to `O=S1(=O)CCN(c2n[n+]([O-])c3cc4c(cc3[n+]2[O-])CCC4)CC1` [SRI-012566], for which the MIC with Mtb H37Rv [1] (setting [5]) and in the data set on Mtb H37Rv [1] (setting [4]) was 5 µg/mL (≈ 14.9 µM) in each case. Take `[O-][n+]1nc(N2CCCC2)[n+]([O-])c2ccccc21` [Compound 17q, 3-(pyrrolidin-1-yl)benzo[e][1,2,4]triazine 1,4-dioxide]: the MIC in the data set on Mtb H37Rv [1] (Table 5, read-out: MIC, H37Rv) was found to be 0.31 µg/mL (≈ 1.33 µM). Further, the “Vero Tox CC50” value in the data set on Vero cells (African green monkey, 72 h) came out at 17 µg/mL. Regarding `CC1CCCCN1c1n[n+]([O-])c2cc3c(cc2[n+]1[O-])CCC3` (stereo not shown) [SRI-012567], the MIC in the data set with Mtb H37Rv [1] (setting [5]) and in the data set on Mtb H37Rv [1] (setting [4]) was 1.25 µg/mL (≈ 4.16 µM) in each case.

On to `[O-][n+]1nc(NC2CCCCC2)[n+]([O-])c2ccccc21` [Compound 8f, 3-(cyclohexylamino)benzo[e][1,2,4]triazine 1,4-dioxide], for which the results for the MIC in the data set with Mtb H37Rv [1] (setting [3]), with Mtb H37Rv [2] and in the data set on NRP Mtb H37Rv cells were 2.5 µg/mL (≈ 9.6 µM), 3.8 µg/mL (≈ 14.6 µM) and 0.75 µg/mL (≈ 2.88 µM), respectively. As to `CC(C)(C)C1CCC(Nc2n[n+]([O-])c3cc(F)ccc3[n+]2[O-])CC1` (stereo not shown) [SRI-012401], the MIC in the data set with Mtb H37Rv [1] (setting [4]) is 0.312 µg/mL (≈ 0.933 µM). For the compound `[O-][n+]1nc(N2CCCC2)[n+]([O-])c2ccccc21` [SRI-012495], the MIC with Mtb H37Rv [1] (setting [4]) turned out to be 0.312 µg/mL (≈ 1.34 µM). The compound also showed a TB MIC - UIC in the data set with Mtb H37Rv [2] (Table P3) of 17.4 µg/mL. In the case of `[O-][n+]1nc(NC2CCC2)[n+]([O-])c2ccc(Cl)cc21` [Compound 15bd, 7-chloro-3-(cyclobutylamino)benzo[e][1,2,4]triazine 1,4-dioxide], the MIC in the data set with Mtb H37Rv [1] (setting [3]) is 0.15 µg/mL (≈ 0.562 µM); in the data set with NRP Mtb H37Rv cells, less than 0.12 µg/mL.

As for `[O-][n+]1nc(NC2CCC2)[n+]([O-])c2ccc(Br)cc21` [SRI-012465], the MIC in the data set with Mtb H37Rv [1] (setting [4]) was 0.156 µg/mL (≈ 0.501 µM). Consider `Cc1cccc2c1[n+]([O-])c(NC1CCCC1)n[n+]2[O-]` [Compound 15ee, 3-(cyclopentylamino)-5-methylbenzo[e][1,2,4]triazine 1,4-dioxide], for which the values for the MIC in the data set with Mtb H37Rv [1] (setting [3]), in the data set with Mtb H37Rv [2] and in the data set on NRP Mtb H37Rv cells were 0.31 µg/mL (≈ 1.19 µM), 0.43 µg/mL (≈ 1.65 µM) and 0.27 µg/mL (≈ 1.04 µM), respectively. The like results for `[O-][n+]1nc(NC2CCCC2)[n+]([O-])c2ccc(F)cc21` [Compound 15ae, 3-(cyclopentylamino)-7-fluorobenzo[e][1,2,4]triazine 1,4-dioxide] were, in that order, 0.31 µg/mL (≈ 1.17 µM), 0.33 µg/mL (≈ 1.25 µM) and 0.34 µg/mL (≈ 1.29 µM). On to `CN(CCc1ccccc1)c1n[n+]([O-])c2cc3c(cc2[n+]1[O-])CCC3` [SRI-012565], for which, in the data set on Mtb H37Rv [1] (setting [4]), the MIC was found to be 0.312 µg/mL (≈ 0.927 µM). Turning to `[O-][n+]1nc(N2CCCC2)[n+]([O-])c2cc3c(cc21)CCC3` [SRI-012530], the MIC is 0.62 µg/mL (≈ 2.28 µM) with Mtb H37Rv [1] (read-out: Activity against H37Rv, Table P4) and 0.625 µg/mL (≈ 2.3 µM) in the data set with Mtb H37Rv [1] (setting [6]). For the compound `CN(Cc1ccccc1)c1n[n+]([O-])c2cc3c(cc2[n+]1[O-])CCC3` [SRI-012564], the MIC with Mtb H37Rv [1] (setting [4]) came out at 0.312 µg/mL (≈ 0.968 µM). As for `[O-][n+]1nc(N[C@@H]2C[C@H]3CC[C@@H]2C3)[n+]([O-])c2ccc(Cl)cc21` (racemic) [SRI-012305], the MIC in the data set with Mtb H37Rv [1] (setting [4]) was 0.156 µg/mL (≈ 0.509 µM). The compound also yielded a TB MIC - UIC with Mtb H37Rv [2] (Tables P1, P2) of less than 0.125 µg/mL. In addition, the LORA MIC with NRP Mtb H37Rv cells (Tables P1, P2, non-replicating M. tuberculosis) was found to be 0.2 µg/mL.

Regarding `CN(C)c1n[n+]([O-])c2cc3c(cc2[n+]1[O-])CCC3` [SRI-012563], the MIC with Mtb H37Rv [1] (setting [4]) worked out at 0.625 µg/mL (≈ 2.54 µM).

For `CCNc1n[n+]([O-])c2cc(Br)ccc2[n+]1[O-]` [SRI-012464], the MIC in the data set with Mtb H37Rv [1] (setting [4]) worked out at 0.625 µg/mL (≈ 2.19 µM). On the same count and under the same terms, next, `[O-][n+]1nc(N2CCCCC2)[n+]([O-])c2cc3c(cc21)CCC3` [SRI-012562]: 0.625 µg/mL (≈ 2.18 µM).

For `CC(C)CCC(C)Nc1n[n+]([O-])c2ccccc2[n+]1[O-]` (stereo not shown) [Compound 8l, 3-((5-methylhexan-2-yl)amino)benzo[e][1,2,4]triazine 1,4-dioxide], the figures for the MIC with Mtb H37Rv [1] (setting [3]), in the data set on Mtb H37Rv [2] and in the data set on NRP Mtb H37Rv cells were 1.2 µg/mL (≈ 4.34 µM), 0.52 µg/mL (≈ 1.88 µM) and 0.38 µg/mL (≈ 1.38 µM), respectively. Take `CC(C)(C)Nc1n[n+]([O-])c2ccccc2[n+]1[O-]` [SRI-003356]: the MIC in the data set with Mtb H37Rv [1] (setting [6]) was found to be 1.25 µg/mL (≈ 5.34 µM). Take `Cc1cccc2c1[n+]([O-])c(N)n[n+]2[O-]` [SRI-012397]: the MIC in the data set with Mtb H37Rv [1] (setting [4]) came to 0.625 µg/mL (≈ 3.25 µM). The same measure, in the same setting: under `CCNc1n[n+]([O-])c2cc(C)c(C)cc2[n+]1[O-]` [SRI-012399] stands 2.5 µg/mL (≈ 10.7 µM); under `Nc1n[n+]([O-])c2cc3c(cc2[n+]1[O-])CCC3` [SRI-012398], 2.5 µg/mL (≈ 11.5 µM). Still for that read-out and setting: next, `COc1ccc2c(c1)[n+]([O-])nc(N[C@@H]1C[C@H]3CC[C@@H]1C3)[n+]2[O-]` [SRI-012462]: 0.625 µg/mL (≈ 2.07 µM). `CS(=O)(=O)N1CCN(c2n[n+]([O-])c3cc4c(cc3[n+]2[O-])CCC4)CC1` [SRI-012568]: the MIC in the data set on Mtb H37Rv [1] (setting [5]) and in the data set on Mtb H37Rv [1] (setting [4]) was 5 µg/mL (≈ 13.7 µM) throughout. For the compound `[O-][n+]1nc(NC2CCC2)[n+]([O-])c2ccccc21` [Compound 8d, 3-(cyclobutylamino)benzo[e][1,2,4]triazine 1,4-dioxide], the MIC with Mtb H37Rv [1] (setting [3]) was found to be 1.2 µg/mL (≈ 5.17 µM); with Mtb H37Rv [2] it was 0.94 µg/mL (≈ 4.05 µM); in the data set with NRP Mtb H37Rv cells it was 0.84 µg/mL (≈ 3.62 µM).

As to `COc1cc2c(cc1C)[n+]([O-])nc(NC1CCC1)[n+]2[O-]` [SRI-012469], the “VERO Tox-SRI” value in the data set on Vero cells (African green monkey, 72 h) was found to be 50. Regarding `[O-][n+]1nc(NC2CCCCC2)[n+]([O-])c2ccc(F)cc21` [Compound 15af, 3-(cyclohexylamino)-7-fluorobenzo[e][1,2,4]triazine 1,4-dioxide], the MIC worked out at 0.62 µg/mL (≈ 2.23 µM) with Mtb H37Rv [1] (setting [3]), 0.68 µg/mL (≈ 2.44 µM) in the data set with Mtb H37Rv [2] and 0.47 µg/mL (≈ 1.69 µM) in the data set with NRP Mtb H37Rv cells. In the same order, the values of `[O-][n+]1nc(NC2CCCCCC2)[n+]([O-])c2ccccc21` [Compound 8g, 3-(cycloheptylamino)benzo[e][1,2,4]triazine 1,4-dioxide] are 2.5 µg/mL (≈ 9.11 µM), 1.6 µg/mL (≈ 5.83 µM) and 0.5 µg/mL (≈ 1.82 µM). On to `C[C@@H]1[C@H]2C[C@@H](C[C@H]1Nc1n[n+]([O-])c3cc(F)ccc3[n+]1[O-])C2(C)C` (racemic) [SRI-012402], for which the MIC in the data set with Mtb H37Rv [1] (setting [4]) came to 0.312 µg/mL (≈ 0.939 µM).

For `CCN(CC)c1n[n+]([O-])c2ccccc2[n+]1[O-]` [SRI-009728], the MIC with Mtb H37Rv [1] (setting [4]) came out at 0.312 µg/mL (≈ 1.33 µM). The same compound gave a TB MIC - UIC with Mtb H37Rv [2] (Table P3) of 12.4 µg/mL. As to `CCNc1n[n+]([O-])c2cc(OC)ccc2[n+]1[O-]` [Compound 15da, 3-(ethylamino)-7-methoxybenzo[e][1,2,4]triazine 1,4-dioxide], the MIC turned out to be 2.5 µg/mL (≈ 10.6 µM) in the data set on Mtb H37Rv [1] (setting [3]), 15 µg/mL (≈ 63.5 µM) in the data set on Mtb H37Rv [2] and 16 µg/mL (≈ 67.7 µM) with NRP Mtb H37Rv cells. On to `COc1cc2c(cc1C)[n+]([O-])nc(N[C@@H]1C[C@H]3CC[C@@H]1C3)[n+]2[O-]` [SRI-012470], for which the “VERO Tox-SRI” value with Vero cells (African green monkey, 72 h) came out at 50. Turning to `Nc1n[n+]([O-])c2cc(Br)ccc2[n+]1[O-]` [SRI-012396], the MIC in the data set with Mtb H37Rv [1] (setting [4]) was found to be 1.25 µg/mL (≈ 4.86 µM).

Take `[O-][n+]1nc(NC2CCCC2)[n+]([O-])c2ccc(Br)cc21` [SRI-012466]: the MIC in the data set on Mtb H37Rv [1] (setting [4]) worked out at 0.156 µg/mL (≈ 0.48 µM).
